Converted amounts (≈) assume the structure as drawn. Read-outs that look alike come from different tables or passages of the source.
Test system: S. aureus
Experiment: Broth microdilution MIC, European bacteraemia isolates 2010-2012
Type: cell-based
In short: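 Bacteraemia isolates from European, Israeli, Russian, Turkish and Ukrainian hospitals (2010-2012) tested centrally by CLSI M07-A9 broth microdilution in cation-adjusted Mueller-Hinton broth with 0.002% polysorbate-80. QC strains E. faecalis ATCC 29212 and S. aureus ATCC 29213; interpretation per CLSI M100-S23 and EUCAST 2013.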

[1] = S. aureus, Methicillin-Susceptible (1,126), at ≦0.008 mg/L
[2] = S. aureus, Methicillin-resistant (372), at ≦0.008 mg/L
[3] = S. aureus, Vancomycin MIC = 2 mg/L (19), at 0.015 mg/L
[4] = S. aureus, Vancomycin MIC = 2 mg/L (19), at 0.03 mg/L
[5] = S. aureus, Vancomycin MIC = 2 mg/L (19), at 0.06 mg/L
[6] = S. aureus, Vancomycin MIC = 2 mg/L (19), at 0.12 mg/L
[7] = Staphylococcus aureus, Table 1, S. aureus, Methicillin-Susceptible (1,126)
[8] = Staphylococcus aureus, Table 1, S. aureus, Methicillin-resistant (372)
[9] = Staphylococcus aureus, read-out: cumulative % inhibited at MIC
[10] = Staphylococcus aureus, Table 2, S. aureus Methicillin-resistant (1,708)

CN[C@H](CC(C)C)C(=O)N[C@H]1C(=O)N[C@@H](CC(N)=O)C(=O)N[C@H]2C(=O)N[C@H]3C(=O)N[C@H](C(=O)N[C@H](C(=O)O)c4cc(O)cc(O)c4-c4cc3ccc4O)[C@H](O[C@H]3C[C@](C)(N)[C@@H](O)[C@H](C)O3)c3ccc(c(Cl)c3)Oc3cc2cc(c3O[C@@H]2O[C@H](CO)[C@@H](O)[C@H](O)[C@H]2O[C@H]2C[C@](C)(NCc3ccc(-c4ccc(Cl)cc4)cc3)[C@@H](O)[C@H](C)O2)Oc2ccc(cc2Cl)[C@H]1O [Oritavancin, N-(4-(4-chlorophenyl)benzyl)A82846B]
activity relative to vancomycin or linezolid (MRSA strains, MIC50/90): 16- to 32 fold | potency relative to daptomycin (MRSA strains, MIC50/90): eight-fold | MIC50, MIC90 and modal MIC relative to strains with vancomycin MIC≦1 mg/L (S. aureus isolates with decreased susceptibility to vancomycin (MIC=2 mg/L)): two-fold higher | Number inhibited at MIC (S. aureus, Methicillin-Susceptible (1,126), at 0.015 mg/L): 247 | Number inhibited at MIC (S. aureus, Methicillin-Susceptible (1,126), at 0.03 mg/L): 458 | Number inhibited at MIC (S. aureus, Methicillin-Susceptible (1,126), at 0.06 mg/L): 297 | Number inhibited at MIC (S. aureus, Methicillin-Susceptible (1,126), at 0.12 mg/L): 78 | Number inhibited at MIC (S. aureus, Methicillin-Susceptible (1,126), at 0.25 mg/L): 18 | Number inhibited at MIC [1]: 28 | cumulative % inhibited at MIC [1]: 2.5% | Number inhibited at MIC (S. aureus, Methicillin-resistant (372), at 0.015 mg/L): 86 | Number inhibited at MIC (S. aureus, Methicillin-resistant (372), at 0.03 mg/L): 180 | Number inhibited at MIC (S. aureus, Methicillin-resistant (372), at 0.06 mg/L): 68 | Number inhibited at MIC (S. aureus, Methicillin-resistant (372), at 0.12 mg/L): 27 | Number inhibited at MIC (S. aureus, Methicillin-resistant (372), at 0.25 mg/L): 6 | Number inhibited at MIC [2]: 5 | cumulative % inhibited at MIC [2]: 1.3% | Number inhibited at MIC [3]: 1 | cumulative % inhibited at MIC [3]: 5.3% | Number inhibited at MIC [4]: 3 | cumulative % inhibited at MIC [4]: 21.1% | Number inhibited at MIC [5]: 11 | cumulative % inhibited at MIC [5]: 78.9% | Number inhibited at MIC [6]: 3 | cumulative % inhibited at MIC [6]: 94.7% | Number inhibited at MIC (S. aureus, Vancomycin MIC = 2 mg/L (19), at 0.25 mg/L): 1 | Number inhibited at MIC (S. aureus, Vancomycin MIC = 2 mg/L (19), at ≦0.008 mg/L): 0 | Number inhibited at MIC (S. aureus, Vancomycin MIC ≦1 mg/L (1,479), at 0.12 mg/L): 102 | Number inhibited at MIC (S. aureus, Vancomycin MIC ≦1 mg/L (1,479), at 0.25 mg/L): 23 | MIC50 (Staphylococcus aureus): 0.03 µg/mL (≈ 0.0167 µM) | MIC90 (Staphylococcus aureus): 0.06 µg/mL (≈ 0.0335 µM) | inhibition at 2 µg/mL (Staphylococcus aureus, S. aureus, Vancomycin MIC = 2 mg/L (19), at ≦0.008 mg/L, read-out: cumulative % inhibited at MIC): 0% | inhibition at 0.12 µg/mL (Staphylococcus aureus, S. aureus, Vancomycin MIC ≦1 mg/L (1,479), at 0.12 mg/L, read-out: cumulative % inhibited at MIC): 98.4% | inhibition at 0.25 µg/mL (Staphylococcus aureus, S. aureus, Vancomycin MIC ≦1 mg/L (1,479), at 0.25 mg/L, read-out: cumulative % inhibited at MIC): 100% | MIC50 [7]: 0.03 µg/mL (≈ 0.0167 µM) | MIC90 [7]: 0.06 µg/mL (≈ 0.0335 µM) | MIC50 [8]: 0.03 µg/mL (≈ 0.0167 µM) | MIC90 [8]: 0.06 µg/mL (≈ 0.0335 µM) | MIC50 (Staphylococcus aureus, Table 1, S. aureus, Vancomycin MIC = 2 mg/L (19), read-out: MIC 50%): 0.06 µg/mL (≈ 0.0335 µM) | MIC90 (Staphylococcus aureus, Table 1, S. aureus, Vancomycin MIC = 2 mg/L (19), read-out: MIC 90%): 0.12 µg/mL (≈ 0.0669 µM) | inhibition at 0.015 µg/mL [9]: 24.7% | inhibition at 0.03 µg/mL [9]: 67.6% | inhibition at 0.06 µg/mL [9]: 91.5% | inhibition at 0.015 µg/mL (Staphylococcus aureus, read-out: cumulative % inhibited at MIC, S. aureus, Methicillin-Susceptible (1,126), at 0.015 mg/L): 24.4% | inhibition at 0.03 µg/mL (Staphylococcus aureus, read-out: cumulative % inhibited at MIC, S. aureus, Methicillin-Susceptible (1,126), at 0.03 mg/L): 65.1% | inhibition at 0.06 µg/mL (Staphylococcus aureus, read-out: cumulative % inhibited at MIC, S. aureus, Methicillin-Susceptible (1,126), at 0.06 mg/L): 91.5% | inhibition at 0.12 µg/mL (Staphylococcus aureus, read-out: cumulative % inhibited at MIC, S. aureus, Methicillin-Susceptible (1,126), at 0.12 mg/L): 98.4% | inhibition at 0.25 µg/mL (Staphylococcus aureus, read-out: cumulative % inhibited at MIC, S. aureus, Methicillin-Susceptible (1,126), at 0.25 mg/L): 100% | inhibition at 0.015 µg/mL (Staphylococcus aureus, read-out: cumulative % inhibited at MIC, S. aureus, Methicillin-resistant (372), at 0.015 mg/L): 24.5% | inhibition at 0.03 µg/mL (Staphylococcus aureus, read-out: cumulative % inhibited at MIC, S. aureus, Methicillin-resistant (372), at 0.03 mg/L): 72.9% | inhibition at 0.06 µg/mL (Staphylococcus aureus, read-out: cumulative % inhibited at MIC, S. aureus, Methicillin-resistant (372), at 0.06 mg/L): 91.1% | inhibition at 0.12 µg/mL (Staphylococcus aureus, read-out: cumulative % inhibited at MIC, S. aureus, Methicillin-resistant (372), at 0.12 mg/L): 98.4% | inhibition at 0.25 µg/mL (Staphylococcus aureus, read-out: cumulative % inhibited at MIC, S. aureus, Methicillin-resistant (372), at 0.25 mg/L): 100% | MIC50 [10]: 0.03 µg/mL (≈ 0.0167 µM) | MIC90 [10]: 0.06 µg/mL (≈ 0.0335 µM) | MIC Range (Table 2, S. aureus Methicillin-resistant (1,708)): ≦0.008-0.25 mg/L
